Test results reported in ChEMBL document CHEMBL1150730, “Secondary metabolites from Fusarium. Two new modified trichothecenes from Fusarium sporotrichioides MC-72083” (J Nat Prod, 1987).

Test: Toxicity in chick embryo measured per egg after 4 days
Parameters: species or system Gallus gallus
Settings: chicken, 96 h

| SMILES | LD50 [µg] |
| --- | --- |
| CC1=C[C@@H]2OC[C@]3(O)C(=O)CC[C@]3(C)[C@@]2(C)C[C@H]1O | > 10 |
| CC1=C[C@@H]2OC[C@]3(O)C(=O)CC[C@]3(C)[C@@]2(C)C[C@@H]1O | > 10 |
